System: E. amylovora 153N
Test: Fire blight on crabapples
Format: in vivo
Design: Blossom Incidence / Shoot Incidence: unit not given here
Settings: for Blossom Incidence: mean of counts; for Canker Size / Shoot Incidence: Day 63
Description: A study of the bioefficacy of the various agrichemical compositions, including bioactive acid solutions and blends thereof with an antibiotic agrichemical, were evaluated to assess their bioefficacy against fire blight on crabapples. The study was conducted on 5 year old Snow Drift crabapple trees, with each of the compositions being applied to ten trees in two-subplots of five trees, four different times: at 100% bloom-day 1, a second application was made on day 4, a third on day 11 and a final treatment on day 19. The trees were inoculated with E. amylovora […] at a concentration of 4×10^6 cells per milliliter on day 1, following drying of the treatment, with the inoculation being repeated on day 13. Evaluation for fire blight was completed on 100 blossoms for each of the subplots on day 12, day 19 and day 27. Additionally, the incidence of shoot infection and the length of […] evaluated on day 63. The test compositions were prepared by forming solutions of the bioactive agents. Two different dilutions of the MI2 bioactive were evaluated, the first employing 94.46 ml/gallon (25 ml/l) of water (5 ppm of each metal) and the second 188.9 ml/gallon (50 ml/l) of water (10 ppm of each metal). […] Finally, copper hydroxide was diluted at a rate of 1 lb/gallon (119.8 g/l). Each of the compositions and blends were spray applied at a rate of 50 gallons (189.3 l) pre acre. The results are presented as the mean of the counts.

Row | Structure (SMILES) | Blossom Incidence (Day 12, rate 0.49 lb/a) | Blossom Incidence (Day 19, rate 0.49 lb/a) | Blossom Incidence (Day 27, rate 0.49 lb/a) | Canker Size (rate 0.49 lb/a) [cm] | Shoot Incidence (rate 0.49 lb/a) | Blossom Incidence (Day 12, rate 5 lbs/a (2.27 kg/a)) | Blossom Incidence (Day 19, rate 5 lbs/a (2.27 kg/a)) | Blossom Incidence (Day 27, rate 5 lbs/a (2.27 kg/a)) | Canker Size (rate 5 lbs/a (2.27 kg/a)) [cm] | Shoot Incidence (rate 5 lbs/a (2.27 kg/a))
1 | [H]/N=C(/N)N[C@H]1[C@H](O)[C@@H](O)[C@H](O[C@@H]2O[C@@H](C)[C@](O)(C=O)[C@H]2O[C@@H]2O[C@@H](CO)[C@H](O)[C@@H](O)[C@@H]2NC)[C@@H](N/C(N)=N\[H])[C@@H]1O [streptomycin] | 1.8 | 4.8 | 3.09 | 0.0 | 1.2 | – | – | – | – | –
2 | [Cu+2].[OH-].[OH-] [copper hydroxide] | – | – | – | – | – | 3.1 | 2.2 | 9.0 | 0.0 | 1.0
